Test results from patent US20240216401A1, “COMBINATION THERAPY BY USING AKR1C3-ACTIVATED COMPOUND WITH IMMUNE CHECKPOINT INHIBITOR” (OBI Pharma, Inc., priority 2021, published 2024).
Values joined by “and” are separate entries in the source; they are usually repeats but may differ in a detail not shown here. Equal entries are not always repeated.

What was measured:
Assay type in all cases: in vivo, Mus musculus
[1] = system: PD-L1^+ cells in tumor-infiltrating lymphocytes; assay: Example 1: flow cytometry, percentage of PD-L1 cells in TILs; details: individual animal
Method: (§1) Mice were sacrificed by CO2 euthanasia at the end of the study duration, and the connective tissue around tumor was resected. The tumor samples were then removed and weighed. The half tissue was fixed in 10% formaldehyde and then embedded in paraffin; the other half was prepared for the isolation of tumor-infiltrating lymphocytes (TILs).
(§2) The half of mouse tumors were dissected into smaller fragments using scalpels and then digested with a cocktail of collagenase, DNase I, and Hyaluronidase (Collagenase #C5138, DNase I #D5025, Hyaluronidase #H6254, SigmaAldrich) for at least 2 hours.
(§3) Cells were stained with the fluorescently conjugated surface antibodies and incubated for 30 minutes at 4° C., and then resuspended in staining buffer for flow cytometric analysis. Flow cytometry was done using a Navios EX Flow Cytometer (Beckman Coulter). Data were analyzed using the Kaluza Analysis Software (Beckman Coulter).

[2] = system: CD8^+ cytotoxic T cells (CTL) in tumor-infiltrating lymphocytes; assay: Example 1: flow cytometry, percentage of CTL cells in TILs
Method: as §1, §2, §3

[3] = Example 1: body weight and mortality of HepG2 tumor bearing humanized mice; details: OBI-3424 1 mg/kg IV, antibody 10 mg/kg IP (20 from Day 15)
Method: (§4) Each group contains five mice. The human hepatocellular carcinoma cell line HepG2 were subcutaneously inoculated to the advanced immune deficiency mice. Total of 30 mice were included in this study.
(§5) 3.1. […] The injection was performed using insulin syringe with the dosage of 10 mg/kg (Dosage of injection was changed to 20 mg/kg from Day 15) and injection volume of 10 mL/kg. […] The reference item was administered for G1. The procedure followed the standards of sample administration.
(§6) 3.2. The test item anti-hPD-L1 antibody or reference items were intraperitoneally injected to the mice on Day 8 after the inoculation of tumor cells. The injection was performed using insulin syringe with the dosage of 10 mg/kg (Dosage of injection was changed to 20 mg/kg from Day 15) and injection volume of 10 mL/kg. The test item anti-hPD-L1 was continuously administered on Day 8, 11, 15, 18, 22, 25, 29 and 32 for G4 and G6. The reference item was administered for G1. The procedure followed the standards of sample administration.
(§7) 3.3. […] The injection was performed using insulin syringe with the dosage of 1 mg/kg and injection volume of 5 mL/kg. […] The reference item was administered for G1. The procedure followed the standards of sample administration.
The measurement was performed from the next day of the inoculation. The animal body weights were measured and recorded twice per week.

[4] = system: NK cells in tumor-infiltrating lymphocytes; assay: Example 1: flow cytometry, percentage of NK cells in TILs; details: individual mice
Method: as §1, §2, §3

HepG2 tumor = assay: Example 1: tumor volume, tumor weight and TGI in HepG2 tumor bearing humanized mice
Method: as §4
2.2. […] The subcutaneous injection volume was […].
as §5, §6, §7
The measurement was performed from the next day of the inoculation. The tumor volumes were measured and recorded twice a week (Mon., Thur.). Tumor volume was calculated by ellipsoid equation according to the records ((major axis×minor axis×minor axis)×(π/6)).
Tumor volumes were used to calculate tumor growth inhibition (TGI) rates according to the following formula: TGI (%)=[1−(Ti−T0)/(Ci−C0)]×100, where Ti and Ci indicate the mean tumor volume in the treatment groups and vehicle group at the end of the experiment (Day 35). Whereas, T0 and C0 indicate the mean tumor volumes in the treatment group and vehicle group at the beginning of the experiment (Day 1).
as §1

[5] = system: CD4^+ T helper cells in tumor-infiltrating lymphocytes; assay: Example 1: flow cytometry, percentage of TH cells in TILs; details: individual mice
Method: as §1, §2, §3

[6] = TILs, flow cytometer, individual mice
[7] = TILs, gate CD45^+CD8^+ cells, individual mice

## anti-hPD-1: Anti-Human PD-1 antibody, Pembrolizumab, Merck & Co., Inc.
[1]
  CD45^+ cells Cell count (×10^6): 7.83 ×10^6 and 6.28 ×10^6 and 2.69 ×10^6 and 2.68 ×10^6 and 3.03 ×10^6
  CD45^+ cells Gated %: 41.15% and 30.42% and 47.95% and 36.87% and 63.31%
  CD45^+ cells Total %: 25.75% and 17.89% and 28.22% and 20.74% and 44.68%
  Total PD-L1^+ cells (PD-L1^+) Cell count (×10^5): 10.55 ×10^5 and 13.65 ×10^5 and 2.38 ×10^5 and 7.80 ×10^5 and 4.22 ×10^5
  Total PD-L1^+ cells (PD-L1^+), Total %: 3.47% and 3.89% and 2.50% and 6.05% and 6.21%
  Total PD-L1^+ cells (PD-L1^+), Total cells Gated %: 6.45% and 7.52% and 3.68% and 7.83% and 6.95%
  Total cells Cell count (×10^6): 16.37 ×10^6 and 18.15 ×10^6 and 6.47 ×10^6 and 9.97 ×10^6 and 6.06 ×10^6
  Total cells Gated %: 53.84% and 51.71% and 67.88% and 77.26% and 89.23%
  Total cells Total %: 53.84% and 51.71% and 67.88% and 77.26% and 89.23%
[2]; Example 1, TILs at sacrifice, flow cytometry
  CD8^+ cytotoxic T cells (CTL) population in tumors compared with vehicle (in words): not observed
[2]; [6]
  CD25^+ CTL cells (CD45^+CD8^+ CD25^+) Total %: 0.26% and 0.10% and 0.65% and 0.84% and 0.41%
  CTL cells (CD45^+CD8^+) Total %: 9.30% and 6.22% and 21.30% and 11.17% and 24.91%
  PD-1^+ CTL cells (CD45^+CD8^+ PD-1^+) Total %: 10.83% and 9.53% and 15.71% and 10.88% and 14.41%
[2]; TILs, gate CD45^+ cells, individual mice
  CTL cells (CD45^+CD8^+) CD45^+ Gated %: 36.10% and 34.75% and 75.47% and 53.85% and 55.75%
[2]; [7]
  CD25^+ CTL cells (CD45^+CD8^+ CD25^+) CTL Gated %: 2.80% and 1.53% and 3.05% and 7.48% and 1.65%
  PD-1^+ CTL cells (CD45^+CD8^+ PD-1^+) CTL Gated %: 89.36% and 84.37% and 66.70% and 66.59% and 57.38%
[2]; TILs, individual mice
  CD25^+ CTL cells (CD45^+CD8^+ CD25^+) Cell count: 0.79 ×10^5 and 0.35 ×10^5 and 0.62 ×10^5 and 1.08 ×10^5 and 0.28 ×10^5
  CTL cells (CD45^+CD8^+) Cell count: 28.27 ×10^5 and 21.83 ×10^5 and 20.30 ×10^5 and 14.41 ×10^5 and 16.91 ×10^5
  PD-1^+ CTL cells (CD45^+CD8^+ PD-1^+) Cell count: 32.92 ×10^5 and 33.45 ×10^5 and 14.97 ×10^5 and 14.04 ×10^5 and 9.78 ×10^5
[3]; Day 0, group mean
  Body Weight, Mean: 22.84 g
[3]; Day 1, group mean
  Body Weight, Mean: 22.47 g
[3]; Day 4, group mean
  Body Weight, Mean: 23.47 g
[3]; Day 7, group mean
  Body Weight, Mean: 23.48 g
[3]; Day 11, group mean
  Body Weight, Mean: 23.90 g
[3]; Day 14, group mean
  Body Weight, Mean: 23.94 g
[3]; Day 18, group mean
  Body Weight, Mean: 24.30 g
[3]; Day 21, group mean
  Body Weight, Mean: 23.59 g
[3]; Day 25, group mean
  Body Weight, Mean: 23.42 g
[3]; Day 28, group mean
  Body Weight, Mean: 22.52 g
[3]; Day 32, group mean
  Body Weight, Mean: 22.55 g
[3]; Day 35, group mean
  Body Weight, Mean: 22.77 g
[4]; flow cytometer
  CD16^+ NK cells (CD45^+CD56^+ CD16^+) Total %: 0.41% and 0.32% (2×) and 0.44% and 0.79%
  NK cells (CD45^+CD56^+) Total %: 2.91% and 1.08% and 3.01% and 1.93% and 4.76%
  PD-1^+ NK cells (CD45^+CD56^+PD-1^+) Total %: 2.67% and 1.13% and 2.36% and 1.46% and 1.78%
[4]; gate CD45^+ cells
  NK cells (CD45^+CD56^+) CD45^+ Gated %: 12.27% and 6.34% and 12.96% and 9.57% and 12.69%
[4]; gate CD45^+CD56^+ cells
  CD16^+ NK cells (CD45^+CD56^+ CD16^+) NK Gated %: 13.94% and 29.77% and 14.48% and 16.58% and 16.61%
  PD-1^+ NK cells (CD45^+CD56^+PD-1^+) NK Gated %: 99.81% and 100.00% and 87.08% and 98.31% and 64.90%
[4]
  CD16^+ NK cells (CD45^+CD56^+ CD16^+) Cell count: 1.25 ×10^5 and 1.12 ×10^5 and 0.42 ×10^5 and 0.41 ×10^5 and 0.54 ×10^5
  NK cells (CD45^+CD56^+) Cell count: 8.85 ×10^5 and 3.79 ×10^5 and 2.87 ×10^5 and 2.49 ×10^5 and 3.23 ×10^5
  PD-1^+ NK cells (CD45^+CD56^+PD-1^+) Cell count: 8.12 ×10^5 and 3.97 ×10^5 and 2.25 ×10^5 and 1.88 ×10^5 and 1.21 ×10^5
HepG2 tumor; D 1, group mean, OBI-3424 1 mg/kg IV, antibody 10 mg/kg IP (20 from Day 15)
  Tumor volume, Mean: 354.80 mm^3
HepG2 tumor; D 4, group mean, OBI-3424 1 mg/kg IV, antibody 10 mg/kg IP (20 from Day 15)
  Tumor volume, Mean: 269.37 mm^3
HepG2 tumor; D 7, group mean, OBI-3424 1 mg/kg IV, antibody 10 mg/kg IP (20 from Day 15)
  Tumor volume, Mean: 301.61 mm^3
HepG2 tumor; D 11, group mean, OBI-3424 1 mg/kg IV, antibody 10 mg/kg IP (20 from Day 15)
  Tumor volume, Mean: 339.50 mm^3
HepG2 tumor; D 14, group mean, OBI-3424 1 mg/kg IV, antibody 10 mg/kg IP (20 from Day 15)
  Tumor volume, Mean: 393.76 mm^3
HepG2 tumor; D 18, group mean, OBI-3424 1 mg/kg IV, antibody 10 mg/kg IP (20 from Day 15)
  Tumor volume, Mean: 735.09 mm^3
HepG2 tumor; D 21, group mean, OBI-3424 1 mg/kg IV, antibody 10 mg/kg IP (20 from Day 15)
  Tumor volume, Mean: 880.07 mm^3
HepG2 tumor; D 25, group mean, OBI-3424 1 mg/kg IV, antibody 10 mg/kg IP (20 from Day 15)
  Tumor volume, Mean: 947.95 mm^3
HepG2 tumor; D 28, group mean, OBI-3424 1 mg/kg IV, antibody 10 mg/kg IP (20 from Day 15)
  Tumor volume, Mean: 1171.03 mm^3
HepG2 tumor; D 32, group mean, OBI-3424 1 mg/kg IV, antibody 10 mg/kg IP (20 from Day 15)
  Tumor volume, Mean: 1366.17 mm^3
HepG2 tumor; D 35, group mean (mean±SEM), OBI-3424 1 mg/kg IV, antibody 10 mg/kg IP (20 from Day 15)
  Tumor volume, Mean: 1613.37±338.07 mm^3 and 1613.37 mm^3
HepG2 tumor; D 35, group mean, OBI-3424 1 mg/kg IV, antibody 10 mg/kg IP (20 from Day 15)
  Tumor weight, Mean: 1266.48 mg
HepG2 tumor; Day 35, vs vehicle (G1), Student's t-test
  mean tumor volume compared with vehicle (in words): No statistically significant difference
HepG2 tumor; HepG2 humanized mouse model
  effect on tumor growth (conclusion in words): no effect on tumor growth
HepG2 tumor; from mean tumor volumes Day 35 vs Day 1, relative to vehicle, OBI-3424 1 mg/kg IV, antibody 10 mg/kg IP (20 from Day 15)
  TGI: −9.69%
[5]; flow cytometer
  CD25^+ TH cells (CD45^+CD4^+ CD25^+) Total %: 0.71% and 0.67% and 0.82% and 1.28% and 0.45%
  PD-1^+ TH cells (CD45^+CD4^+ PD-1^+) Total %: 20.78% and 11.99% and 9.21% and 11.61% and 15.49%
  TH cells (CD45^+CD4^+) Total %: 19.18% and 11.07% and 9.76% and 11.17% and 18.23%
[5]; gate CD45^+ cells
  TH cells (CD45^+CD4^+) CD45^+ Gated %: 74.49% and 61.90% and 34.59% and 53.85% and 40.81%
[5]; gate CD45^+CD4^+ cells
  CD25^+ TH cells (CD45^+CD4^+CD25^+) TH Gated %: 3.70% and 6.05% and 8.35% and 11.42% and 2.44%
  PD-1^+ TH cells (CD45^+CD4^+ PD-1^+) TH Gated %: 96.11% and 90.08% and 83.23% and 82.55% and 85.27%
[5]
  CD25^+ TH cells (CD45^+CD4^+ CD25^+) Cell count: 2.16 ×10^5 and 2.35 ×10^5 and 0.78 ×10^5 and 1.65 ×10^5 and 0.31 ×10^5
  PD-1^+ TH cells (CD45^+CD4^+ PD-1^+) Cell count: 63.17 ×10^5 and 42.08 ×10^5 and 8.78 ×10^5 and 14.98 ×10^5 and 10.52 ×10^5
  TH cells (CD45^+CD4^+) Cell count: 58.31 ×10^5 and 38.86 ×10^5 and 9.30 ×10^5 and 14.41 ×10^5 and 12.38 ×10^5
